Measurements published in patent US20160038468A1 (priority 2013, published 2016).
In brackets after ≈: the same amount, converted by molar mass. Read-outs that look alike come from different tables or passages of the source.

Experiments:
Assay type in all cases: cell-based
Prevotella timonensis = experiment: Agar dilution MIC (CLSI), Prevotella timonensis vaginal isolates; details: for Number of strains with indicated MIC: 33 samples
Anaerococcus tetradius = experiment: Agar dilution MIC (CLSI), Anaerococcus tetradius vaginal isolates; details: for MIC: read-out: Minimal Inhibitory Concentration (MIC); for Number of strains with indicated MIC: 21 samples
Peptoniphilus lacrimalis = experiment: Agar dilution MIC (CLSI), Peptoniphilus lacrimalis vaginal isolates; details: for Number of strains with indicated MIC: 20 samples; for MIC: read-out: Minimal Inhibitory Concentration (MIC)
[1] = Anaerococcus tetradius, # tested 21
[2] = Peptoniphilus lacrimalis, # tested 20

CCC[C@@H]1C[C@@H](C(=O)N[C@@H]([C@H]2O[C@H](SC)[C@H](O)[C@@H](O)[C@H]2O)[C@H](C)Cl)N(C)C1 [Clindamycin] was tested, and the MIC90 (Prevotella timonensis; Hoylesella timonensis, # tested 33) was > 128 µg/mL, the “Number of strains with indicated MIC” value (Prevotella timonensis; MIC 0.03 μg/ml) was 17 and the “Number of strains with indicated MIC” value (Prevotella timonensis; MIC 0.06 μg/ml) was 2. For the same molecule, the “Number of strains with indicated MIC” value (Prevotella timonensis; MIC >[…]) was 13, the “Number of strains with indicated MIC” value (Prevotella timonensis; MIC […]) was 1 and the “Minimal Inhibitory Concentration (MIC)” value (Prevotella timonensis; isolate 301212 10) was >128 µg/mL. The “Minimal Inhibitory Concentration (MIC)” value (Prevotella timonensis; isolate 601175 J) was >128 µg/mL, the “Minimal Inhibitory Concentration (MIC)” value (Prevotella timonensis; isolate 601214 A) was >128 µg/mL and the “Minimal Inhibitory Concentration (MIC)” value (Prevotella timonensis; isolate 601226 C) was >128 µg/mL. For the same molecule, the “Minimal Inhibitory Concentration (MIC)” value (Prevotella timonensis; isolate 601234 B) was >128 µg/mL, the “Minimal Inhibitory Concentration (MIC)” value (Prevotella timonensis; isolate 601293 13) was >128 µg/mL and the “Minimal Inhibitory Concentration (MIC)” value (Prevotella timonensis; isolate 601367 E) was >128 µg/mL. The “Minimal Inhibitory Concentration (MIC)” value (Prevotella timonensis; isolate 601370 13) was >128 µg/mL, the “Minimal Inhibitory Concentration (MIC)” value (Prevotella timonensis; isolate 601401 J) was >128 µg/mL and the “Minimal Inhibitory Concentration (MIC)” value (Prevotella timonensis; isolate 601411 S) was >128 µg/mL. The “Minimal Inhibitory Concentration (MIC)” value (Prevotella timonensis; isolate 601414 O) was >128 µg/mL, the “Minimal Inhibitory Concentration (MIC)” value (Prevotella timonensis; isolate 601422 39) was >128 µg/mL and the Susceptible (Prevotella timonensis; number (%) of isolates, # tested 33) was 19 (58) μg/ml. The Resistant (Prevotella timonensis; number (%) of isolates, # tested 33, resistance: rifaximin >32, metronidazole >32, clindamycin >8 μg/ml) was 14 (42) μg/ml, the MIC (Anaerococcus tetradius; Anaerococcus tetradius, isolate 601098V T) was 2 µg/mL (≈ 4.71 µM) and the MIC (Anaerococcus tetradius; Anaerococcus tetradius, isolate 601103V 21) was 2 µg/mL (≈ 4.71 µM). It also gave an MIC (Anaerococcus tetradius; Anaerococcus tetradius, isolate 601175V I) of 1 µg/mL (≈ 2.35 µM), an MIC (Anaerococcus tetradius; Anaerococcus tetradius, isolate 601202V 11) of 2 µg/mL (≈ 4.71 µM) and an MIC (Anaerococcus tetradius; Anaerococcus tetradius, isolate 601212V 14) of 2 µg/mL (≈ 4.71 µM). It also gave an MIC (Anaerococcus tetradius; Anaerococcus tetradius, isolate 601221V 12) of 0.03 µg/mL (≈ 0.0706 µM), an MIC (Anaerococcus tetradius; Anaerococcus tetradius, isolate 601222V 15) of 0.25 µg/mL (≈ 0.588 µM) and an MIC (Anaerococcus tetradius; Anaerococcus tetradius, isolate 601242V 17) of 4 µg/mL (≈ 9.41 µM). For the same molecule, the MIC (Anaerococcus tetradius; Anaerococcus tetradius, isolate 601256V 9) was 2 µg/mL (≈ 4.71 µM), the MIC (Anaerococcus tetradius; Anaerococcus tetradius, isolate 601305V J) was 2 µg/mL (≈ 4.71 µM) and the MIC (Anaerococcus tetradius; Anaerococcus tetradius, isolate 601326V H) was 2 µg/mL (≈ 4.71 µM). It also gave an MIC (Anaerococcus tetradius; Anaerococcus tetradius, isolate 601340V 25) of 2 µg/mL (≈ 4.71 µM), an MIC (Anaerococcus tetradius; Anaerococcus tetradius, isolate 601342V N) of 2 µg/mL (≈ 4.71 µM) and an MIC (Anaerococcus tetradius; Anaerococcus tetradius, isolate 601368V 42) of 2 µg/mL (≈ 4.71 µM). For the same molecule, the MIC (Anaerococcus tetradius; Anaerococcus tetradius, isolate 601369V 12) was 2 µg/mL (≈ 4.71 µM), the MIC (Anaerococcus tetradius; Anaerococcus tetradius, isolate 601401V T) was 8 µg/mL (≈ 18.8 µM) and the MIC (Anaerococcus tetradius; Anaerococcus tetradius, isolate 601429V 15) was 2 µg/mL (≈ 4.71 µM). The MIC (Anaerococcus tetradius; Anaerococcus tetradius, isolate 601450V 22) was 1 µg/mL (≈ 2.35 µM), the MIC (Anaerococcus tetradius; Anaerococcus tetradius) was > 128 µg/mL and the MIC50 (Anaerococcus tetradius; [1]) was 2 µg/mL (≈ 4.71 µM). For the same molecule, the MIC90 (Anaerococcus tetradius; [1]) was > 128 µg/mL, the “Number of strains with indicated MIC” value (Anaerococcus tetradius; MIC 0.03 μg/ml) was 1 and the “Number of strains with indicated MIC” value (Anaerococcus tetradius; MIC 8 μg/ml) was 1. The “Number of strains with indicated MIC” value (Anaerococcus tetradius; MIC >[…]) was 3, the “Number of strains with indicated MIC” value (Anaerococcus tetradius; MIC […]) was 1 and the “Minimal Inhibitory Concentration (MIC)” value (Anaerococcus tetradius; isolate 601379V 25) was >128 µg/mL. The “Minimal Inhibitory Concentration (MIC)” value (Anaerococcus tetradius; isolate 602375V 22) was >128 µg/mL, the “Number of strains with indicated MIC” value (Peptoniphilus lacrimalis; MIC 0.06 μg/ml) was 1 and the “Number of strains with indicated MIC” value (Peptoniphilus lacrimalis; MIC 8 μg/ml) was 1. The “Number of strains with indicated MIC” value (Peptoniphilus lacrimalis; MIC >[…]) was 3, the MIC (Peptoniphilus lacrimalis; Peptoniphilus lacrimalis, isolate 601028V 27A) was 128 µg/mL (≈ 301 µM) and the MIC (Peptoniphilus lacrimalis; Peptoniphilus lacrimalis, isolate 601060V 32A) was 0.125 µg/mL (≈ 0.294 µM). The MIC (Peptoniphilus lacrimalis; Peptoniphilus lacrimalis, isolate 601078V O) was 0.125 µg/mL (≈ 0.294 µM), the MIC (Peptoniphilus lacrimalis; Peptoniphilus lacrimalis, isolate 601084V c) was 0.125 µg/mL (≈ 0.294 µM) and the MIC (Peptoniphilus lacrimalis; Peptoniphilus lacrimalis, isolate 601105V 13) was 0.06 µg/mL (≈ 0.141 µM). It also gave an MIC (Peptoniphilus lacrimalis; Peptoniphilus lacrimalis, isolate 601139V 17) of 128 µg/mL (≈ 301 µM), an MIC (Peptoniphilus lacrimalis; Peptoniphilus lacrimalis, isolate 601255V 12) of 0.25 µg/mL (≈ 0.588 µM) and an MIC (Peptoniphilus lacrimalis; Peptoniphilus lacrimalis, isolate 601293V 15) of 0.25 µg/mL (≈ 0.588 µM). For the same molecule, the MIC (Peptoniphilus lacrimalis; Peptoniphilus lacrimalis, isolate 601305V K-1) was 0.25 µg/mL (≈ 0.588 µM), the MIC (Peptoniphilus lacrimalis; Peptoniphilus lacrimalis, isolate 601318V E) was 8 µg/mL (≈ 18.8 µM) and the MIC (Peptoniphilus lacrimalis; Peptoniphilus lacrimalis, isolate 601330V H) was 0.25 µg/mL (≈ 0.588 µM). For the same molecule, the MIC (Peptoniphilus lacrimalis; Peptoniphilus lacrimalis, isolate 601336V 47) was 0.25 µg/mL (≈ 0.588 µM), the MIC (Peptoniphilus lacrimalis; Peptoniphilus lacrimalis, isolate 601365V 13) was 0.125 µg/mL (≈ 0.294 µM) and the MIC (Peptoniphilus lacrimalis; Peptoniphilus lacrimalis, isolate 601368V 39) was 0.25 µg/mL (≈ 0.588 µM). The MIC (Peptoniphilus lacrimalis; Peptoniphilus lacrimalis, isolate 601375V E) was 0.25 µg/mL (≈ 0.588 µM), the MIC (Peptoniphilus lacrimalis; Peptoniphilus lacrimalis, isolate 601388V B) was 0.25 µg/mL (≈ 0.588 µM) and the MIC (Peptoniphilus lacrimalis; Peptoniphilus lacrimalis, isolate 601401V I) was 0.25 µg/mL (≈ 0.588 µM). The MIC (Peptoniphilus lacrimalis; Peptoniphilus lacrimalis) was > 128 µg/mL, the MIC50 (Peptoniphilus lacrimalis; [2]) was 0.25 µg/mL (≈ 0.588 µM) and the MIC90 (Peptoniphilus lacrimalis; [2]) was > 128 µg/mL. The “Minimal Inhibitory Concentration (MIC)” value (Peptoniphilus lacrimalis; isolate 601261V O) was >128 µg/mL, the “Minimal Inhibitory Concentration (MIC)” value (Peptoniphilus lacrimalis; isolate 601296V N) was >128 µg/mL and the Susceptible (Peptoniphilus lacrimalis; number (%) of isolates, # tested 20) was 14 (70) μg/ml. The Resistant (Peptoniphilus lacrimalis; number (%) of isolates, # tested 20, resistance: rifaximin >32, metronidazole >32, clindamycin >8 μg/ml) was 6 (30) μg/ml.
